Marks after values point to notes of the source that are not given here.

Data set [1] is described as follows: Measurement of mRNA encapsulation in lipid nanoparticles (Quant-iT Ribogreen). The data set is classed as physicochemical. As to conditions: LNP cationic lipid/DSPC/cholesterol/stealth lipid, N:P 4:1, leptin mRNA. As for the experimental part:
All equipment and disposable supplies are certified free of RNase activity by the manufacturer or rendered RNase free by use of the RNaseZap reagent (LifeTechnologies). mRNA is encapsulated at a cationic lipid amine to mRNA phosphate (N:P) molar ratio of 4:1. Lipids (cationic lipid, DSPC, cholesterol and lipidated PEG or stealth lipid) are dissolved in ethanol. The molar ratios are 40:10:38:2, respectively. The mixture is sonicated briefly, then gently agitated for 5 minutes and then maintained at 37° C. until use. mRNA is exchanged into citrate buffer pH 5.8-6.0 by use of Amicon Ultra-15 centrifugal concentrators, and the final concentration is adjusted to 0.5 mg/ml and held at 37° C. until use. An equal volume of lipids in ethanol, mRNA in citrate buffer, and citrate buffer alone are drawn into disposable syringes. Tubing leading from syringes containing lipids and mRNA are attached to the T junction, and tubing leading from the syringe containing citrate buffer alone is paired with the tubing exiting the T-junction over a collection vessel containing a stir bar on an active stir plate. Syringes are placed in a syringe pump set to expel contents at a flow rate of 1 ml per minute.
The pump is activated, and the collected mRNA in lipid nanoparticles is transferred to SnakeSkin dialysis tubing (10,000 MWCO, Thermo Scientific). Material is dialyzed against RNAse- and pyrogen-free 1× phosphate buffered saline overnight at 4° C.
Percent encapsulation of mRNA in lipid nanoparticles is determined using the Quant-iT Ribogreen RNA Assay kit (Life Technologies). The LNP-mRNA suspension is assayed in buffer (mRNA outside the particle), and buffer plus Triton X-100 detergent (total mRNA). The difference calculated is the mRNA inside the particle. Prepare a 1000 ng/mL stock from the RNA provided in the kit and use this to generate a standard curve (0 ng/ml, 15.63-1000 ng/ml) in TE and TE+0.75% Triton X-100. Prepare LNP-mRNA samples in TE buffer and TE buffer+0.75% Triton X-100 with appropriate dilution so that reading is in the range of standard curve (400-2,000 fold). In a 384-well plate (Costar non-treated #3573) add 0.04 ml of standard (in duplicate) or sample (in triplicate) per well. Dilute Ribogreen reagent 240-fold in TE buffer and add 0.06 ml per well. Mix contents of wells and measure fluorescence (excitation=480 nm, emission=520 nm). Subtract background values (no RNA) from standard and test sample values and determine the concentrations of RNA in the samples using the standard curves. Determine the percent encapsulation of the sample by dividing the difference in concentrations between sample+triton and sample in buffer alone by the sample+triton concentration.

The nature of data set [2]: Encapsulation efficiency of RNA replicons (Quant-iT RiboGreen). The data set is classed as physicochemical. To be noted: LNP 40% cationic lipid, 10% DSPC, 48% cholesterol, 2% PEG-DMG; RNA replicon. Here is the method: Briefly, lipids were dissolved in ethanol (2m1), a RNA replicon was dissolved in buffer (2 ml, 100 mM sodium citrate, pH 6) and these were mixed with 2 ml of buffer followed by 1 hour of equilibration. The mixture was then dialized overnight against 1×PBS. The resulting product contained liposomes, with ˜70-95% encapsulation efficiency.
The percentage of encapsulated RNA and RNA concentration were determined by Quant-iT RiboGreen RNA reagent kit (Invitrogen), following manufacturer's instructions. The ribosomal RNA standard provided in the kit was used to generate a standard curve. LNPs were diluted 10× or 100× in 1× TE buffer (from kit) before addition of the dye. Separately, LNPs were diluted 10× or 100× in 1× TE buffer containing 0.5% Triton X before addition of the dye (to disrupt the LNPs and thus to assay total RNA). Thereafter an equal amount of dye was added to each solution and then ˜180 μL of each solution after dye addition was loaded in duplicate into a 96 well tissue culture plate. The fluorescence (Ex 485 nm, Em 528 nm) was read on a microplate reader. All LNP formulations were dosed in vivo based on the encapsulated amount of RNA.
Background: Replicon systems follow genome replication, usually without infectious particles.

A further data set relates to RSV F protein. The class given is in vivo. To be noted: Table 4, BALB/c mice, intramuscular; for Log10(IgG titer), 1 ng RNA (RSV-F), 2 weeks post 2nd immunization: 1 ng vA375 replicon in LNP, days 0 and 21; for Log10(IgG titer), RNA (RSV-F), 2 weeks post 2nd immunization: 100 ng dose.
A short description of data set [3]: Characterization of LNP formulations: Z average particle diameter and polydispersity index. To be noted: LNP formulation; for Zav (nm): Z average particle diameter; for polydispersity: polydispersity index. The class given is physicochemical. From the text: The lipid nanoparticles have a size of about 1 to about 2,500 nm, about 1 to about 1,500 nm, about 1 to about 1,000 nm, in a sub-embodiment about 50 to about 600 nm, in a sub-embodiment about 50 to about 400 nm, in a sub-embodiment about 50 to about 250 nm, and in a sub-embodiment about 50 to about 150 nm. Unless indicated otherwise, all sizes referred to herein are the average sizes (diameters) of the fully formed nanoparticle, as measured by dynamic light scattering on a Malvern Zetasizer. The nanoparticle sample is diluted in phosphate buffered saline (PBS) so that the count rate is approximately 200-400 kcts. The data is presented as a weighted average of the intensity measure.

In the case of `CCCCCCCCCC(=O)OCCCCCCCCOc1ccc(OCCCCCCCCOC(=O)CCCCCCCCC)c(COC(=O)CCCN(C)C)c1` [Example 7, ((2-(((4-(dimethylamino)butanoyl)oxy)methyl)-1,4-phenylene)bis(oxy))bis(octane-8,1-diyl) bis(decanoate)], in data set [1], the “% encapsulation (mRNA Leptin)” value came out at 95.4%. In addition, in data set [2], the “Encapsulation efficiency (RNA %)” value was determined as 85.6%. The “Log10(IgG titer), 1 ng RNA (RSV-F), 2 weeks post 2nd immunization” value (“Log10(IgG titer), 1 ng RNA (RSV-F)” for short) in the data set with RSV F protein is reported as 4.37. In addition, in data set [3], the “Zav (nm)” value worked out at 100.7 nm and the polydispersity is 0.096.

Regarding `CCCCCCCCOC(CCC(=O)OCCCCCOc1ccc(OCCCCCOC(=O)CCC(OCCCCCCCC)OCCCCCCCC)c(COC(=O)CCCN(C)C)c1)OCCCCCCCC` [Example 21, ((2-(((4-(Dimethylamino)butanoyl)oxy)methyl)-1,4-phenylene)bis(oxy))bis(pentane-5,1-diyl) bis(4,4-bis(octyloxy)butanoate)], in data set [1], the “% encapsulation (mRNA Leptin)” value is given as 79.8%.

Regarding `CCCCCCCCCC(=O)OCCCCCCCCOc1ccc(COC(=O)CCCN(CC)CC)c(OCCCCCCCCOC(=O)CCCCCCCCC)c1` [Example 28, ((4-(((4-(Diethylamino)butanoyl)oxy)methyl)-1,3-phenylene)bis(oxy))bis(octane-8,1-diyl) bis(decanoate)], in data set [1], the “% encapsulation (mRNA Leptin)” value turned out to be 93.6%.

As to `CCCCCCCCOC(CCC(=O)OCCCOc1ccc(OCCCOC(=O)CCC(OCCCCCCCC)OCCCCCCCC)c(COC(=O)CCCN(C)C)c1)OCCCCCCCC` [Example 20, ((2-(((4-(Dimethylamino)butanoyl)oxy)methyl)-1,4-phenylene)bis(oxy))bis(propane-3,1-diyl) bis(4,4-bis(octyloxy)butanoate)], in data set [1], the “% encapsulation (mRNA Leptin)” value worked out at 88.4%.

In the case of `CCCCCCCCOC(CCC(=O)OCCCCCOc1ccc(OCCCCCOC(=O)CCC(OCCCCCCCC)OCCCCCCCC)c(COC(=O)CCCN(CC)CC)c1)OCCCCCCCC` [Example 22, ((2-(((4-(diethylamino)butanoyl)oxy)methyl)-1,4-phenylene)bis(oxy))bis(pentane-5,1-diyl) bis(4,4-bis(octyloxy)butanoate)], in data set [1], the “% encapsulation (mRNA Leptin)” value turned out to be 86.0%.

As to `CCCCCCCCCC(=O)OCCCCCCCCOc1ccc(OCCCCCCCCOC(=O)CCCCCCCCC)c(COC(=O)C2CCN(C)CC2)c1` [Example 6, ((2-(((1-methylpiperidine-4-carbonyl)oxy)methyl)-1,4-phenylene)bis(oxy))bis(octane-8,1-diyl) bis(decanoate)], the “Encapsulation efficiency (RNA %)” value in data set [2] is on record as 71.3%. The “Log10(IgG titer), 1 ng RNA (RSV-F)” value in the data set with RSV F protein stood at 4.25.

For the compound `CCCCCCCCCC(=O)OCCCCCCCCOc1ccc(OCCCCCCCCOC(=O)CCCCCCCCC)c(COC(=O)CCN(C)C)c1` [Example 5], the “% encapsulation (mRNA Leptin)” value in data set [1] turned out to be 59.0%.

On to `CCCCCCCCCC(=O)OCCCCCCCCOc1ccc(COC(=O)C2(C)CCN(C)CC2)c(OCCCCCCCCOC(=O)CCCCCCCCC)c1` [Example 26, ((4-(((1,4-Dimethylpiperidine-4-carbonyl)oxy)methyl)-1,3-phenylene)bis(oxy))bis(octane-8,1-diyl) bis(decanoate)], for which, in data set [1], the “% encapsulation (mRNA Leptin)” value amounted to 90.8%.

Regarding `CCCCCCCCCC(=O)OCCCCCCCCOc1ccc(OCCCCCCCCOC(=O)CCCCCCCCC)c(COC(=O)OCCCN(C)C)c1` [Example 12, ((2-((((3-(dimethylamino)propoxy)carbonyl)oxy)methyl)-1,4-phenylene)bis(oxy))bis(octane-8,1-diyl) bis(decanoate)], the “Encapsulation efficiency (RNA %)” value in data set [2] stood at 89.8%. Also, the “Log10(IgG titer), 1 ng RNA (RSV-F)” value in the data set with RSV F protein is reported as 4.40. Besides, in data set [3], the “Zav (nm)” value is 97.3 nm and the polydispersity is given as 0.116.

Turning to `CCCCC/C=C\C/C=C\CCCCCCCCOc1ccc(OCCCCCCCC/C=C\C/C=C\CCCCC)c(COC(=O)OCCCN(C)C)c1` [Example 3, 2,5-bis((9Z,12Z)-octadeca-9,12-dienyloxy)benzyl 3-(dimethylamino)propyl Carbonate], the “Encapsulation efficiency (RNA %)” value in data set [2] came out at 85.0%. For the same compound, the “Log10(IgG titer), RNA (RSV-F), 2 weeks post 2nd immunization” value in the data set on RSV F protein is on record as 4.77 (100 ng dose)*.

For `CCCCCCCCOC(CCC(=O)OCCCCCOc1ccc(OCCCCCOC(=O)CCC(OCCCCCCCC)OCCCCCCCC)c(COC(=O)C2(C)CCN(C)CC2)c1)OCCCCCCCC` [Example 23, ((2-(((1,4-Dimethylpiperidine-4-carbonyl)oxy)methyl)-1,4-phenylene)bis(oxy))bis(pentane-5,1-diyl) bis(4,4-bis(octyloxy)butanoate)], the “% encapsulation (mRNA Leptin)” value in data set [1] is given as 84.3%.

Consider `CCCCCCCCCC(=O)OCCCCCCCCOc1ccc(COC(=O)CCCN(C)C)c(OCCCCCCCCOC(=O)CCCCCCCCC)c1` [Example 27, ((4-(((4-(Dimethylamino)butanoyl)oxy)methyl)-1,3-phenylene)bis(oxy))bis(octane-8,1-diyl) bis(decanoate)], for which, in data set [1], the “% encapsulation (mRNA Leptin)” value was determined as 95.2%.

Turning to `CCCCC/C=C\C/C=C\CCCCCCCCOc1cc(COC(=O)OCCCCN(C)C)c(OCCCCCCCC/C=C\C/C=C\CCCCC)cc1C` [Example 15, 4-(dimethylamino)butyl 4-methyl-2,5-bis((9Z,12Z)-octadeca-9,12-dienyloxy)benzyl Carbonate], the “Encapsulation efficiency (RNA %)” value in data set [2] turned out to be 82.6%. Also, the “Log10(IgG titer), 1 ng RNA (RSV-F)” value in the data set on RSV F protein came to 2.81. Besides, in data set [3], the “Zav (nm)” value is 138.8 nm and the polydispersity is on record as 0.210.

As for `CCCCCCCCCC(=O)OCCCCCCCCOc1ccc(OCCCCCCCCOC(=O)CCCCCCCCC)c(COC(=O)OCCCN(CC)CC)c1` [Example 13, ((2-((((3-(diethylamino)propoxy)carbonyl)oxy)methyl)-1,4-phenylene)bis(oxy))bis(octane-8,1-diyl) bis(decanoate)], the “Encapsulation efficiency (RNA %)” value in data set [2] is given as 92.1%.

For the compound `CCCCC/C=C\C/C=C\CCCCCCCCOc1ccc(OCCCCCCCC/C=C\C/C=C\CCCCC)c(COC(=O)CCN(C)C)c1` [Example 2, 2,5-bis((9Z,12Z)-octadeca-9,12-dien-1-yloxy)benzyl 3-(dimethylamino)propanoate], the “Encapsulation efficiency (RNA %)” value in data set [2] is 13.1%. The “Log10(IgG titer), RNA (RSV-F), 2 weeks post 2nd immunization” value with RSV F protein was 4.14 (100 ng dose)*.

For the compound `CCCCCCCCCC(=O)OCCCCCCCCOc1ccc(OCCCCCCCCOC(=O)CCCCCCCCC)c(COC(=O)C2CCN(C(C)C)CC2)c1` [Example 9, ((2-(((1-isopropylpiperidine-4-carbonyl)oxy)methyl)-1,4-phenylene)bis(oxy))bis(octane-8,1-diyl) bis(decanoate)], the “Encapsulation efficiency (RNA %)” value in data set [2] came out at 69.1%. Also, in data set [3], the “Zav (nm)” value worked out at 182.6 nm and the polydispersity is given as 0.369.
